US9630922B2, “3-spiro-7-hydroxamic acid tetralins as HDAC inhibitors” (Forma Therapeutics, Inc., priority 2015, dated 2017)

Molecular target: T1, HDAC6 (Homo sapiens, UniProt Q9UBN7)
T1 construct: Full length human recombinant HDAC6 protein was expressed in baculoviral system; made in house; host or cells: baculoviral system
T1 sequence (Q9UBN7 1-1215): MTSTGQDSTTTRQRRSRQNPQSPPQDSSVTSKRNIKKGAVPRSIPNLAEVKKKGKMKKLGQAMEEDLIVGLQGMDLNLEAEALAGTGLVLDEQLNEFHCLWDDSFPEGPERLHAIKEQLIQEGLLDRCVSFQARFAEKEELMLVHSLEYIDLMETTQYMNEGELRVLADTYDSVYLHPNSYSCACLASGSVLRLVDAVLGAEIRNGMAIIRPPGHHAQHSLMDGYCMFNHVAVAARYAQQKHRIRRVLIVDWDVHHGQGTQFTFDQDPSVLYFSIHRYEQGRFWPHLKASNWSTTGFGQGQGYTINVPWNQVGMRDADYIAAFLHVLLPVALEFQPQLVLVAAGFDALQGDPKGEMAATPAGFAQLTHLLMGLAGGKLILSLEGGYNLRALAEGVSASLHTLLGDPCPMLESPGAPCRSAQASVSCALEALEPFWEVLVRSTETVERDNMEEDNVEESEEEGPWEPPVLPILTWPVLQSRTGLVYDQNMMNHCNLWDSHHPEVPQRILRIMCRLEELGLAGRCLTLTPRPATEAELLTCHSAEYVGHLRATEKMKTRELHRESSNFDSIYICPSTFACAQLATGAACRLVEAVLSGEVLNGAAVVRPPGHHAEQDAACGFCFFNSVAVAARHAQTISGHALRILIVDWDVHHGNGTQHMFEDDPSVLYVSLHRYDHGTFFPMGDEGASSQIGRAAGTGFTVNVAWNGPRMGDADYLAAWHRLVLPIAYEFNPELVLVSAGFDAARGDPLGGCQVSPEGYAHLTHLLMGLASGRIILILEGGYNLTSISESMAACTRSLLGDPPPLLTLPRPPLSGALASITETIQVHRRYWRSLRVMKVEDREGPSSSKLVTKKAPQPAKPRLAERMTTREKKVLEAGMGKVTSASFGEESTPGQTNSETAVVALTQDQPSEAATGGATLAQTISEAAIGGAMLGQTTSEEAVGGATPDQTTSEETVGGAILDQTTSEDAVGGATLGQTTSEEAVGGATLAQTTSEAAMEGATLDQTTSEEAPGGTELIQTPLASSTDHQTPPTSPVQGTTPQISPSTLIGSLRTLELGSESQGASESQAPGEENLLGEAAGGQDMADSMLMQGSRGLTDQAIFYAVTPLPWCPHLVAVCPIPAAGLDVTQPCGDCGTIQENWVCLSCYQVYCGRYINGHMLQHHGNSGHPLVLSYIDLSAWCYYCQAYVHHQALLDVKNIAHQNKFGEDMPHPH
Test: In vitro Histone Deacetylase Assay (enzymatic HDAC6 electrophoretic mobility shift assay)
Assay type: biochemical
Settings: full length human recombinant HDAC6, 1 nM enzyme, 2 μM peptide substrate RHKK(Ac)-NH2, 25° C.; read-out: HDAC6 activity range
Procedure, shortened: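 Deacetylation was read by microfluidic mobility shift as product/(substrate+product) peak ratio and normalised to 0% and 100% inhibition controls. Reactions used 1 nM baculovirus-expressed full-length human HDAC6 and 2 μM labelled RHKK(Ac)-NH2 in pH 7.5 HEPES buffer with 1% DMSO at 25 °C. IC50 was from 4-parameter fits of 12 concentrations.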

IC50 | Structure (SMILES)
100 to 500 nM | O=C(NO)c1ccc2c(c1)CCC1(CCN(S(=O)(=O)C3CCCCC3)CC1)O2 [II-6, 1′-(cyclohexylsulfonyl)-N-hydroxyspiro[chromane-2,4′-piperidine]-6-carboxamide]
100 to 500 nM | O=C(NO)c1ccc2c(c1)CCC1(CCN(C(=O)Nc3ccccc3)CC1)O2 [II-7, N6-hydroxy-N1′-phenylspiro[chromane-2,4′-piperidine]-1′,6-dicarboxamide]
> 500 nM | O=C(NO)c1ccc2c(c1)CCC1(CCN(C3CCCCC3)CC1)O2 [II-8, 1′-cyclohexyl-N-hydroxyspiro[chromane-2,4′-piperidine]-6-carboxamide]
> 500 nM | O=C(NO)c1ccc2c(c1)CCC1(CCN(C(=O)N3CC4(CCOCC4)c4ccccc43)CC1)O2 [II-9, N-hydroxy-1′-(2′,3′,5′,6′-tetrahydrospiro[indoline-3,4′-pyran]-1-carbonyl)spiro[chromane-2,4′-piperidine]-6-carboxamide]
